The target of one assay is T1, ALDH1A2 (Homo sapiens, UniProt O94788).
T1 construct: His-tag; made in house; host or cells: E. coli Rosetta (DE3)
T1 sequence (O94788 1-518): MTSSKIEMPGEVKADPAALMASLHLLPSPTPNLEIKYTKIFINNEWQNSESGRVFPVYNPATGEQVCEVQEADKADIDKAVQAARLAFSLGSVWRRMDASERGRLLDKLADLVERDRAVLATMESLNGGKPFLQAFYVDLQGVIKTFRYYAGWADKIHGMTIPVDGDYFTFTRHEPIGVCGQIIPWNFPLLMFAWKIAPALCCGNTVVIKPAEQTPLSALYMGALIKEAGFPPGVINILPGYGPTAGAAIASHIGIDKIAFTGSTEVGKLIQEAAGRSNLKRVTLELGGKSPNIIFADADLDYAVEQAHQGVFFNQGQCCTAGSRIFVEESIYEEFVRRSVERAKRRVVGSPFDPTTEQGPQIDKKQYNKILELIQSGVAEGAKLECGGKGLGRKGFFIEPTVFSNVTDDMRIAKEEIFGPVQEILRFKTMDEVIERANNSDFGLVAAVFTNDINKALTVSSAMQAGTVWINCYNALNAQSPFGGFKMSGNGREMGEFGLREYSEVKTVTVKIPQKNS
Put plainly: Selectivity biochemical assay, NAD(P)H-Glo Detection System. The procedure, abridged:
(§1)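 Recombinant full-length His-tagged human enzymes expressed in E. coli were pre-incubated 30 min at room temperature with compound (10-point, 3-fold series; top 20 μM for ALDH1A3, 250 μM for ALDH1A1/1A2). Propionaldehyde and NAD were then added at Km; NADH was read by NAD(P)H-Glo luminescence. Buffer: Tris (pH 7.6 for 1A1/1A2, 9.0 for 1A3), 1 mM TCEP, 0.01% Tween-20.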

For the next assay, the target named is T2, ALDH1A1 (Homo sapiens, UniProt P00352).
T2 construct: His-tag; made in house; host or cells: E. coli Rosetta (DE3)
T2 sequence (P00352 1-501): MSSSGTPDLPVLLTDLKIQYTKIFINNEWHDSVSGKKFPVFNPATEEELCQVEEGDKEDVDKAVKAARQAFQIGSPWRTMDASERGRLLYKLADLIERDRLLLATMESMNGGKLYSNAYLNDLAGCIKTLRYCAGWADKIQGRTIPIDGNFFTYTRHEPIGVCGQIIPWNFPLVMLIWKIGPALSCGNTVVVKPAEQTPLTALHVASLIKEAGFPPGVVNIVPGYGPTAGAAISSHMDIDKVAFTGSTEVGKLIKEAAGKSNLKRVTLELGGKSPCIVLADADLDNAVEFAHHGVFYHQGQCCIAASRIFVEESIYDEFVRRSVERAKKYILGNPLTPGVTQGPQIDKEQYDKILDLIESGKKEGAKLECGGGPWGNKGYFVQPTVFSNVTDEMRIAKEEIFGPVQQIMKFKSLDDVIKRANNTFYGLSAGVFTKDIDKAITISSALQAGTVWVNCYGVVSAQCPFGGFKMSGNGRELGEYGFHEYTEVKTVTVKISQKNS
Described as above. The procedure, abridged: as §1

Usually IC50 stands for the concentration at which inhibition is half-maximal. A higher IC50 goes with weaker potency in that assay.

In the case of `Cc1nc(C2CCCN2CCOc2ccc3c(c2)CCC(=O)N3)cs1` (centres unmarked) [ALDHI-2033, 6-[2-[2-(2-methylthiazol-4-yl)pyrrolidin-1-yl]ethoxy]-3,4-dihydro-1H-quinolin-2-one], the IC50 against ALDH1A2 and against ALDH1A1 was at least 100 µM throughout.
`O=C1CCc2cc(OCCN3CCCC3c3cccc(F)c3)ccc2N1` (centres unmarked) [ALDHI-2001, 6-[2-[2-(3-fluorophenyl)pyrrolidin-1-yl]ethoxy]-3,4-dihydro-1H-quinolin-2-one]: the results for the IC50 against ALDH1A2 and on ALDH1A1 were 0.1 to 1 µM and at least 100 µM, respectively.
The matching figures for `O=C1CCc2cc(OCCN3CCCC3c3cccs3)ccc2N1` (centres unmarked) [ALDHI-2013, 6-[2-[2-(2-thienyl)pyrrolidin-1-yl]ethoxy]-3,4-dihydro-1H-quinolin-2-one]: 1 to 10 µM and at least 100 µM.
The matching figures for `O=C1CCc2cc(NC(=O)c3scnc3-c3ccccc3F)ccc2N1` [ALDHI-1021, 4-(2-fluorophenyl)-N-(2-oxo-3,4-dihydro-1H-quinolin-6-yl)thiazole-5-carboxamide]: 1 to 10 µM and at least 100 µM.

(Values after US20240174634A1, “Aldehyde Dehydrogenase Inhibitors and Their Therapeutic Use” (priority 2020, published 2024).)
